For one data set, the system named is motor impairment. The settings on record: mouse, in vivo.
The nature of data set [1]: in vitro. The settings on record: rat, serum.
Data set [2] is described as follows: in vitro. The conditions noted are these: mouse, other tissue homogenate.
The next data set has as its target NTS1 (HT-29 cells) (Homo sapiens, UniProt P30989). Description: cell-based.
Data set [3] has as its target cell-surface neurotensin receptors (HT-29 cells) (Homo sapiens, UniProt P30989). In kind it is cell-based.
The target of data set [4] is neurotensin receptors (HT-29 cells) (Homo sapiens, UniProt P30989). The format is cell-based.
Sequence of neurotensin receptors (HT-29 cells) (P30989 whole entry, looked up): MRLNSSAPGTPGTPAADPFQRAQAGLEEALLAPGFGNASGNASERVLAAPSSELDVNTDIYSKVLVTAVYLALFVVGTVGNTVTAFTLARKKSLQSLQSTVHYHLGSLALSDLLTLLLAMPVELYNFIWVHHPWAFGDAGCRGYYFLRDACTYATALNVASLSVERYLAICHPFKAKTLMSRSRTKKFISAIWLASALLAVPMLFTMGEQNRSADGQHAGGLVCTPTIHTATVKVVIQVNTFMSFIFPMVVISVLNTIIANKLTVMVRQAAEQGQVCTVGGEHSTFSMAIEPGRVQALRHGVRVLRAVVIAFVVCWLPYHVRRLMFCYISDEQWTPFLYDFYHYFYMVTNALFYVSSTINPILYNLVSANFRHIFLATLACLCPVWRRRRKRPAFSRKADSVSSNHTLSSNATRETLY

Where a SMILES comes first, the peptide text is derived from it. [ ]: non-standard residue; d: D form. The star is where a group is joined. X1 = CC(=O)N[C@@H]1[C@@H](O[C@@H]2O[C@H](CO)[C@H](O)[C@H](O)[C@H]2O)[C@@H](O)[C@@H](CO)O[C@@H]1*; X2 = CC12CC3CC(C)(C1)CC(N*)(C3)C2; pGlu = O=C1CC[C@@H](C(=O)O)N1 Some results are limits rather than exact numbers.

Sequence of cell-surface neurotensin receptors (HT-29 cells) (P30989 whole entry, looked up): as above
Sequence of NTS1 (HT-29 cells) (P30989 whole entry, looked up): as above

On to `CC[C@H](C)[C@H](NC(=O)[C@H](Cc1ccc(O)cc1)NC(=O)[C@@H]1CCCN1C(=O)[C@H](CCCCN)NC(=O)[C@H](CCCCN)NC(=O)[C@H](CCC(=O)NC12CC3CC(C)(CC(C)(C3)C1)C2)NC(=O)[C@H](CCCCN)NC(=O)[C@H](CC(N)=O)NC(=O)[C@H](CO)NC(=O)CNC(=O)CNC(=O)[C@H](CCC(=O)O)NC(=O)[C@H](CCC(=O)O)NC(=O)[C@H](CO)NC(=O)[C@@H]1CCC(=O)N1)C(=O)N[C@@H](CC(C)C)C(=O)O` [memantine-Contulakin-G] ([pGlu]SEEGGSNKE(X2)KKPYIL-OH), for which the rotorod toxicity entry in the data set with motor impairment is given as “no rotorod toxicity”.
For `CC[C@H](C)[C@H](NC(=O)[C@H](Cc1ccc(O)cc1)NC(=O)[C@@H]1CCCN1C(=O)[C@H](CCCCN)NC(=O)[C@H](CCCCN)NC(=O)[C@@H](NC(=O)[C@H](C)NC(=O)[C@H](CC(N)=O)NC(=O)[C@H](CO)NC(=O)CNC(=O)CNC(=O)[C@H](CCC(=O)O)NC(=O)[C@H](CCC(=O)O)NC(=O)[C@H](CO)NC(=O)[C@@H]1CCC(=O)N1)[C@@H](C)O[C@H]1O[C@H](CO)[C@H](O)[C@H](O[C@@H]2O[C@H](CO)[C@H](O)[C@H](O)[C@H]2O)[C@H]1NC(C)=O)C(=O)N[C@@H](CC(C)C)C(=O)O` [Contulakin-G] ([pGlu]SEEGGSNAT(X1)KKPYIL-OH), the half-life in the data set “in vitro [1]” is > 16 h. For the same molecule, in the data set “in vitro [2]”, the half-life was > 2.67 h. The molecule also showed an EC50 on NTS1 (HT-29 cells) of 32.4 ± 14.5 nM. For the same molecule, the “levels of cell-surface neurotensin receptors after agonist exposure” value in data set [3] is given as “significantly higher levels”. In data set [4], this molecule had a DC50 of 444 ± 41 nM and a DC50/EC50 of 14.

The values above are taken from PMC4322620 (Frontiers in Pharmacology, 2015).
